Reference: US5877165A, “Boronated porhyrins and methods for their use” (priority 1997, dated 1999)

How the values were obtained:
[1] = Experiment I: hematological, chemical and enzymatic tests, mice bearing KHJJ tumors (Table 7); assay type: in vivo, BALB/c mice; details: 3 ip over 8 hr, ZnDPE 118, NiTCP 183 μg/gbw, median (range)
Procedure: Lipophilic porphyrins 1, 2, 4, 5, and 6 were injected as emulsions in either 3% or 9% CRM and either 6% or 18% PRG with saline as previously described in Example 2 above. Water soluble porphyrins 3 and 7 were dissolved in saline. BPA was solubilized as a fructose complex.
Female BALB/c mice (from Taconic Farms, Germantown, N.Y.) (20-25 g) were implanted with either KHJJ or EMT-6 tumors according to the procedure described in Example 3A above.
(§1) Under deep halothane anesthesia leading to euthanasia, right ventricular blood was collected in Microtainer (Becton-Dickinson, Rutherford, N.J.) tubes containing EDTA for hematological analyses and boron assays of whole blood and in Microtainer™ tubes containing lithium heparin for chemical analyses and enzyme assays of blood plasma. Tumor, brain, fat, muscle, and liver tissues were sampled at necropsy for boron analyses.
In Experiment I, NiTCP (183 μg/gbw) and lipophilic, heme derivative ZnDPE (118 μg/gbw) were compared in mice bearing KHJJ mammary tumors. The porphyrins were given as 3% CRM and 6% PrG emulsions in 3 ip injections given over 8 hrs. Animals were euthanized 15 hr, 39 hr, and 90 hr after the last injection.
Hematological, chemical and enzymatic tests were carried out as described in Example 3 above. Nonparametric statistical analyses were carried out using the Wilcoxon Two-Sample Test in accordance with procedures described in Slatkin, D.N., 1995. Boron analyses were conducted in accordance with the procedure described in Example 3 above. Fat and liver tissues were assayed for ^10 B by prompt-gamma spectroscopy as described in Fairchild, et al., 1986. These measurements were multiplied by 5.0 to give total boron concentrations due to the use of boron of natural isotope abundance in the syntheses of all boronated porphyrins reported.

KHJJ mammary carcinomas = experiment: Boron biodistribution, mice with KHJJ mammary carcinomas (Examples 4-7, Table 1); assay type: in vivo, BALB/c mice; details: mouse, in vivo; for Boron Concentration: Blood / Boron Concentration: Brain / Boron Concentration: Tumor: ip, 160 mg/kg
Procedure: Female BALB/c mice (Taconic Farms, Germantown, N.Y.) (20-25 g) were implanted with either KHJJ or EMT-6 tumors. For KHJJ tumors, 1-3 mm^3 tumor fragments were implanted subcutaneously (s.c.) in the dorsal thorax of each mouse using an 18-gauge trocar. For EMT-6 tumors, 2.5×10^5 cells were implanted similarly using a 27-gauge needle. EMT-6 tumor cells were grown alternately in vivo and in vitro. Single-cell suspensions were prepared from mouse-grown tumors by trypsinization. These were grown in cell culture for several passages and then were frozen in 10% DMSO and stored in liquid nitrogen. Prior to implantation in mice, the cells were thawed and grown in tissue culture in Alpha-MEM with 10% FBS for several passages.
as §1
Direct current plasma-atomic emission spectroscopy [DCP-AES] (ARL/Fisons Model SS-7) was used (detection limit: 0.1 μg/ml). Samples (50-130 mg) were digested at 60° C. with sulfuric acid:nitric acid (1:1). Triton X-100 and water were added to give final concentrations of ≈50 mg tissue/ml, 15% total acid v/v and 5% Triton X-100 v/v. Fat and liver tissues were assayed for ^10 B by prompt-gamma spectroscopy (Fairchild, et al., 1986). The prompt-gamma measurements were multiplied by 5.0 to give the total boron concentrations due to the use of boron of natural isotope abundance in the syntheses of all boronated porphyrins reported.
Seven mice having KHJJ mammary carcinomas were given one intraperitoneal (i.p.) injection of 900 μg/g body weight of the boron compound presently used for BNCT of malignant brain tumors, p-boronophenylalanine (BPA) complexed with fructose. BPA was prepared in accordance with procedure described in Coderre, et al., 1996 incorporated herein by reference in its entirety as if set forth in full.
Mice were euthanized during the collection of blood while under Halothane anesthesia. At necropsy, the apparent states of structural integrity, consistency, color or abnormality, if any, of tissues were observed and tumor, brain and liver tissues were collected from each mouse for boron analysis.
Eight mice having KHJJ mammary carcinomas were injected with the NiTCP solution in the amount of 160 μg NiTCP/g body weight (36 μgB/g body weight) in six i.p. injections over 20 hours.
(§2) Six hours after the mice were last injected with NiTCP, mice were euthanized during the collection of blood while under Halothane anesthesia and right ventricular blood was collected from each mouse for hematological and chemical analysis without pooling the samples. At necropsy, the apparent states of structural integrity, consistency, color, or abnormality, if any, of tissues were observed and tumor, brain and liver tissues were collected from each mouse for boron analysis without pooling the samples.
Seven mice having KHJJ mammary carcinomas were injected with the NiTCP solution in the amount of 160 μg NiTCP/g body weight (36 μgB/g body weight) in six i.p. injections over 20 hours.
as §2, with “Sixteen hours” for “Six hours”, “were” for “were last”, “boron analysis. […]” for “boron analysis without pooling the samples.”

[2] = Overall ranking of boronated porphyrins for BNCT guided by biodistribution and toxicity tests in mice (Table 11)
Procedure: The higher the numerical value, the better the performance of that porphyrin for that property. […] Although VCDP was able to deliver therapeutic amounts of boron to tumor, such side effects such as thrombocytopenia, which was induced within 3 hours after injections, weight loss, and the altered hepatic enzymes were serious enough to rank VCDP considerably behind the TCP's and the TCP-H's (Miura et al., 1992). In addition, the 80-hour drug administration period and the 90-hour blood clearance period are of great inconvenience. Moreover, this 4-day difference between the VCDP and the TCP (or TCP-H) dose and clearance schedules would translate into a 4-day greater delay between initiation of drug administration and neutron irradiation which would allow greater tumor growth to occur.
[…]
biodistribution and toxicity tests in mice. An asterisk indicates

Nickel Tetracarboranylphenylporphyrin [NiTCP]
% Δw ([1]; 15 hr): 0.5 (^- 3.2-4.1) %
ALP ([1]; 15 hr): 80 (56-86)
ALT ([1]; 15 hr): 28 (21-32)
AST ([1]; 15 hr): 81 (60-146)
BCR ([1]; 15 hr): 0.5 (0.4-0.5)
BUN ([1]; 15 hr): 32 (27-41)
CPK ([1]; 15 hr): 66 (41-289)
GLU ([1]; 15 hr): 199 (183-262)
PLT ([1]; 15 hr): 733 (579-956)
% Δw ([1]; 39 hr): 3.9 (3.0-9.2) %
ALP ([1]; 39 hr): 71 (57-88)
ALT ([1]; 39 hr): 32 (27-153)
AST ([1]; 39 hr): 108 (76-442)
BCR ([1]; 39 hr): 0.4 (0.3-0.4)
BUN ([1]; 39 hr): 35 (32-43)
CPK ([1]; 39 hr): 167 (91-227)
GLU ([1]; 39 hr): 210 (183-260)
PLT ([1]; 39 hr): 826 (790-927)
% Δw ([1]; 90 hr): 7.8 (5.9-12.1) %
ALP ([1]; 90 hr): 40 (37-80)
ALT ([1]; 90 hr): 27 (26-33)
AST ([1]; 90 hr): 138 (46-285)
BCR ([1]; 90 hr): 0.4 (0.4-0.4)
BUN ([1]; 90 hr): 24 (14-34)
CPK ([1]; 90 hr): 69 (52-94)
GLU ([1]; 90 hr): 218 (172-242)
PLT ([1]; 90 hr): 790 (553-839)
boron delivered to tumor relative to BPA (KHJJ mammary carcinomas): twice the amount of boron to tumor than that of BPA
Boron Concentration: Blood (KHJJ mammary carcinomas; 16 h): 13.2 (4.2-30.5) μg B/g
Boron Concentration: Brain (KHJJ mammary carcinomas; 16 h): 3.8 (2.4-5.0) μg B/g
Boron Concentration: Tumor (KHJJ mammary carcinomas; 16 h): 25.5 (16.2-38.7) μg B/g
Boron Concentration: Blood (KHJJ mammary carcinomas; 78 h): 0.2 (0.4-5.8) μg B/g
Boron Concentration: Brain (KHJJ mammary carcinomas; 78 h): 1.7 (0.1-0.2) μg B/g
Boron Concentration: Tumor (KHJJ mammary carcinomas; 78 h): 17.0 (9.2-28.2) μg B/g
Drug tolerance/deliverable boron (ranking) [2]: 4
Lipophilicity (ranking) [2]: 2
Tumor uptake (normalized) (ranking) [2]: 3
Tumor:Blood (ranking) [2]: 3
toxicity, in words (general) ([2]; in vivo, at (potentially) therapeutic doses): substantially less toxic
